In ChEMBL document CHEMBL1909046, “DrugMatrix in vitro pharmacology data”:

Assays:
[1] = target: Beta-3 adrenergic receptor (Homo sapiens, UniProt P13945); assay: DRUGMATRIX: Adrenergic beta3 radioligand binding (ligand: [125I] Cyanopindolol); assay type: cell membranes, HEK293, Membrane; details: hek293; Not Active = under 50% inhibition at 10 µM
[2] = target: Cannabinoid receptor 1 (Homo sapiens, UniProt P21554); assay type: cell membranes, Chem-1, Membrane; details: chem-1; also: in other assays of this panel Not Active means under 50% inhibition at 10 µM
Sequence of Cannabinoid receptor 1 (P21554 whole entry): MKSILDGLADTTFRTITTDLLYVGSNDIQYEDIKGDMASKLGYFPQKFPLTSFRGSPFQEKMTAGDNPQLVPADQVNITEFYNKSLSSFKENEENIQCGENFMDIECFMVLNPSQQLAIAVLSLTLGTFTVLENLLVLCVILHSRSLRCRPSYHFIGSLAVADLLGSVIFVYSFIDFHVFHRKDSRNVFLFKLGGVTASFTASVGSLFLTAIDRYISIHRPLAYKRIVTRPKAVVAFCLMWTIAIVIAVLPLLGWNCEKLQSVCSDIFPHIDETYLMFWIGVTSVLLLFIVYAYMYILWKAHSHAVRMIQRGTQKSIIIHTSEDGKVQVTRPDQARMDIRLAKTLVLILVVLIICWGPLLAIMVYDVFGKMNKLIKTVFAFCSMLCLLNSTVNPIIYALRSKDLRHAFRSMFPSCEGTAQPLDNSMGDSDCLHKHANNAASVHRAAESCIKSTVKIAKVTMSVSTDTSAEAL

[3] = target: T1, C-X-C chemokine receptor type 1 (Homo sapiens, UniProt P25024); also: in other assays of this panel Not Active means under 50% inhibition at 10 µM
T1 sequence (P25024 whole entry): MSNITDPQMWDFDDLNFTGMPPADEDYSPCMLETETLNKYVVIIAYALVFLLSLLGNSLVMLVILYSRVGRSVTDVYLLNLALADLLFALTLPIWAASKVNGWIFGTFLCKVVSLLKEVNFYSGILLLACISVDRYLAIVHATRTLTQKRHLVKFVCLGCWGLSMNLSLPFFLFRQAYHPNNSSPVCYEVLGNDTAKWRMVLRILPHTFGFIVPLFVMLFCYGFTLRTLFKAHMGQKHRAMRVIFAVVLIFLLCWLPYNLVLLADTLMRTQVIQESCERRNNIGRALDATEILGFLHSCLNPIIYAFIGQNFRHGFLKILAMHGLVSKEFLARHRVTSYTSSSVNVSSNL

[4] = target: T2, Cholecystokinin receptor type A (Homo sapiens, UniProt P32238); assay type: cell membranes, Membrane; details: 1321-n1; also: in other assays of this panel Not Active means under 50% inhibition at 10 µM
T2 sequence (P32238 whole entry): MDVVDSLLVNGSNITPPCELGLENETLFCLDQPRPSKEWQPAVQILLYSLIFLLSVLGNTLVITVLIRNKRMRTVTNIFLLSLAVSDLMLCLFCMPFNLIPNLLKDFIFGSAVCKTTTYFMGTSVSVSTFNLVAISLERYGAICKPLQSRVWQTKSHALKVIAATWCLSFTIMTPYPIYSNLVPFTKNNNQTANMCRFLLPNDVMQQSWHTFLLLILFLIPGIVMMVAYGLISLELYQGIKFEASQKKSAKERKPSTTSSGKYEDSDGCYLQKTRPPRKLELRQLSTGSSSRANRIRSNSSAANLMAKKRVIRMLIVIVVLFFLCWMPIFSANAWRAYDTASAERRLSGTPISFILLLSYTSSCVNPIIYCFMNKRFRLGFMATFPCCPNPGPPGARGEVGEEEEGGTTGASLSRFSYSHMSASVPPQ

[5] = DRUGMATRIX: Phosphodiesterase PDE3 enzyme inhibition (substrate: [3H]cAMP + cAMP); assay type: tissue-based, Homo sapiens; details: platelet; Not Active = under 50% inhibition at 10 µM
[6] = target: T3, Cytochrome P450 1A2 (Homo sapiens, UniProt P05177); details: bti-tn-5b1-4; also: in other assays of this panel Not Active means under 50% inhibition at 10 µM
T3 sequence (P05177 whole entry): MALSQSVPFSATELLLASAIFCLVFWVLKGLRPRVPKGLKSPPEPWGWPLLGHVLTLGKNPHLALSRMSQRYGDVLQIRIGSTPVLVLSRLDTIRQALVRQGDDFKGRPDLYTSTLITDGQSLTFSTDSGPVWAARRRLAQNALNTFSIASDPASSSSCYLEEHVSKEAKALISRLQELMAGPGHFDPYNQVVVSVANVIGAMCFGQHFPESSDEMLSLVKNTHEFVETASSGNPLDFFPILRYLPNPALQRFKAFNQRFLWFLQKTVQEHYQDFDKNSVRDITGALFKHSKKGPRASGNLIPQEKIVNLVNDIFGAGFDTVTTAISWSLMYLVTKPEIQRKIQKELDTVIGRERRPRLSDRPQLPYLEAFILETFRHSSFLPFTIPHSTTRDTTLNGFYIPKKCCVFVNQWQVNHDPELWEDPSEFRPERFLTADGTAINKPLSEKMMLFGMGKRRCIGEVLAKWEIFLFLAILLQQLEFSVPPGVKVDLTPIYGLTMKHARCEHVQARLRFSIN

[7] = target: T4, Glucocorticoid receptor (Homo sapiens, UniProt P04150); details: hela s3; also: in other assays of this panel Not Active means under 50% inhibition at 10 µM
T4 sequence (P04150 whole entry): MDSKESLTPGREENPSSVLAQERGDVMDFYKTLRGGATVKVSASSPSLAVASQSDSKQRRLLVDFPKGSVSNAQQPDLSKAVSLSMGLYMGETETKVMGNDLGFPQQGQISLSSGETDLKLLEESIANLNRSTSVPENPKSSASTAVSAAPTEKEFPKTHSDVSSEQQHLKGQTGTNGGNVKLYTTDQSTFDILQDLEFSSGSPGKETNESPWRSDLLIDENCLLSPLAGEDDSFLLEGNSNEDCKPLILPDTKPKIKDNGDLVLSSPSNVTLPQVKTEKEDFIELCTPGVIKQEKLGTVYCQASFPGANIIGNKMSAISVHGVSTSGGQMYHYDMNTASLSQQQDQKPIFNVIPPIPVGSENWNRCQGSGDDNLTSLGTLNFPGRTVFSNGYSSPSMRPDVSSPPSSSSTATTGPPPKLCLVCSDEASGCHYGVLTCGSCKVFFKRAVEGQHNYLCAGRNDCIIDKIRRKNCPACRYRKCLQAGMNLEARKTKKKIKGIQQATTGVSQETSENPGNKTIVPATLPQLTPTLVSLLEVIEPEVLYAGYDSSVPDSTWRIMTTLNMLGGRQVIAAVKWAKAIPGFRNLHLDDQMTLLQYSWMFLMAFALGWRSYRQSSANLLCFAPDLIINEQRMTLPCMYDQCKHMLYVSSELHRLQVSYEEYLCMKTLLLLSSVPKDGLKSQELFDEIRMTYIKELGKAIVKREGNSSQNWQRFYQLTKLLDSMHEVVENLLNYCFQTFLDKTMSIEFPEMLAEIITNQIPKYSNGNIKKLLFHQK

Sequence of Beta-3 adrenergic receptor (P13945 whole entry): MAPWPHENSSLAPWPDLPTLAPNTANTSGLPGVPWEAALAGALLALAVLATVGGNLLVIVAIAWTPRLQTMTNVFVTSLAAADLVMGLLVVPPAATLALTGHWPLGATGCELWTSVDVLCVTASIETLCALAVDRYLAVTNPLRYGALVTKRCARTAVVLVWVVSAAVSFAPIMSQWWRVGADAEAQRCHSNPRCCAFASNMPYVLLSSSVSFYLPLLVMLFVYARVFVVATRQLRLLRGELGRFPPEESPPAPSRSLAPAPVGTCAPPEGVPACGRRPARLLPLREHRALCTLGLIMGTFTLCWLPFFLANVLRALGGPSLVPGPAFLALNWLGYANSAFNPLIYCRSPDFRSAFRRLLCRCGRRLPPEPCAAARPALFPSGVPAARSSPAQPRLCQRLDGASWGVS

POVIDONE
Not Active: IC50 [1] | Ki [1] | IC50 [2] | Ki [2] | IC50 [3] | Ki [3] | IC50 [4] | Ki [4] | IC50 [5] | Ki [5] | IC50 [6] | Ki [6] | IC50 [7] | Ki [7]

CCO [ALCOHOL]
Not Active: IC50 [1] | IC50 [2] | IC50 [3] | IC50 [4] | IC50 [5] | Ki [5] | IC50 [6] | Ki [6] | IC50 [7]

Clc1cc(Cl)c(OCC#CI)cc1Cl [HALOPROGIN]
Not Active: IC50 [1] | IC50 [2] | IC50 [3] | IC50 [4] | IC50 [5] | Ki [5] | IC50 [6] | Ki [6] | IC50 [7]

CHROMIC CHLORIDE
Not Active: IC50 [1] | Ki [1] | IC50 [2] | Ki [2] | IC50 [3] | Ki [3] | IC50 [4] | Ki [4] | IC50 [5] | Ki [5] | IC50 [6] | Ki [6] | IC50 [7] | Ki [7]

Nc1ccc(Cc2ccc(N)cc2)cc1
Not Active: IC50 [1] | IC50 [2] | IC50 [3] | IC50 [4] | IC50 [5] | Ki [5] | IC50 [6] | Ki [6] | IC50 [7]

COc1cc([C@@H]2c3cc4c(cc3[C@H](O)[C@H]3COC(=O)[C@H]23)OCO4)cc(OC)c1OC [PODOFILOX]
Not Active: IC50 [1] | IC50 [2] | IC50 [3] | IC50 [4] | IC50 [5] | Ki [5] | IC50 [6] | Ki [6] | IC50 [7]

OC[C@H]1OC2C3[C@@H](CO)OC(O[C@H]4[C@H](O)[C@@H](O)[C@@H](O[C@H]5[C@H](O)[C@@H](O)[C@@H](O[C@H]6[C@H](O)[C@@H](O)[C@@H](O[C@H]7[C@H](O)[C@@H](O)[C@@H](O[C@H]8[C@H](O)[C@@H](O)[C@@H](O[C@H]9[C@H](O)[C@@H](O)C(OC1[C@H](O)[C@H]2O)O[C@@H]9CO)O[C@@H]8CO)O[C@@H]7CO)O[C@@H]6CO)O[C@@H]5CO)O[C@@H]4CO)[C@H](O)[C@H]3O
Not Active: IC50 [1] | IC50 [2] | IC50 [3] | IC50 [4] | IC50 [5] | Ki [5] | IC50 [6] | Ki [6] | IC50 [7]

Nc1ccc(C(=O)O)c(O)c1 [AMINOSALICYLIC ACID]
Not Active: IC50 [1] | IC50 [2] | IC50 [3] | IC50 [4] | IC50 [5] | Ki [5] | IC50 [6] | Ki [6] | IC50 [7]
